Data from patent publication US20230041228A1, “Small Molecule Inhibition of Micro-RNA-210 Reprograms an Oncogenic Hypoxic Circuit” (University of Florida Research Foundation, Incorporated, priority 2017, published 2023).

Test system: miR-96 and miR-210 levels
Assay: Effect on miR-96 and miR-210 levels under hypoxic conditions
Assay type: cell-based

Substance: Targaprimir-96 [reference compound]
- effect on miR-96 and miR-210 levels: only affects miR-96
